Results published in US6693167B1, “Peptide-based gemini compounds” (SmithKline Beecham p.l.c., priority 1997, dated 2004).

Columns and labels:
Assay type in all cases: cell-based
CHO-K1 cells [1] = experiment: Transfection of luciferase plasmid into CHO-K1 cells in combination with supplements (DOPE, PLUS)
Description: The transfection ability of the gemini compounds could be further enhanced by the addition of a neutral carrier, for example, dioleyl phosphatidylethanolamine (DOPE) (Farhood, H., et al (1985) Biochim. Biophys. Acta 1235 289) or a complexing reagent, for example, PLUS compound (Life Technologies Inc.). […] Transfection mediated by compound 55 with DOPE in a 2:1 ratio and the addition of 11.6 ul of PLUS compound lead to a mean count of 6.5×10^5 cps representing a 12-fold increase of luciferase activity in comparison to compound 55 alone. Incubation of the PLUS compound with the DNA and combination with compound 55 alone also lead to a 4-fold increase.

HEK293 cells = experiment: Transfection of luciferase plasmid into HEK293 cells
Description: All tissue culture reagents were obtained from Life Technologies Inc. HEK 293 cells were seeded at 2-3×10^5 cells per well in Nunc six-well culture plates, 24 hours prior to transfection. The cells were seeded in 2 mls Dulbeccos Modified Eagle medium containing Earles salts and supplemented with 10% v/v foetal bovine serum (=complete medium). The cells were grown at 37° C. in 5% CO2 in a humidified atmosphere. 6 ug DNA (“luciferase control plasmid” from Promega Corp.) were dissolved in 100 ul serum free medium (OPTI-MEM®). The peptide-based gemini compounds were made up at 1 mg/ml in tissue culture grade water and then diluted in OPTI-MEM® to the appropriate concentration to a final volume of […]. The DNA and gemini solutions were mixed (to a total volume of 200 ul; final concentrations of 5, 25, 50, 100, 150, 200, 250 and 300 ug/ml) and left at room temperature for 15 minutes. The DNA/gemini mix was placed onto the cells in each well and left in contact for 18-20 hours. The cells were then washed twice with phophate buffered saline prior to 1 ml of fresh complete medium being added. Cells were incubated for a further 24 hours prior to lysis and luciferase activity assayed.
All luciferase activity assays were performed using the Canberra Packard (Berkshire, UK) Luclite kit according to the manufacturer's instructions with the exception that the cells in each well were resuspended in 1 ml lysis buffer and 10 ul aliquots mixed with 100 ul of the luciferase substrate. The reaction mix was left for a 15 minutes adaptation period in the dark before counting for 5 minutes in a Top Count scintillation counter. Luciferase activity is measured as counts per second (CPS) from the scintillation counter. Four independent counts were taken per well.
Control transfections were set up with no DNA, CaPO4, an anionic gemini compound (1) and the commercially available lipofection reagents LipofectAmine™ and Lipotaxi™ at the manufacturers recommended concentrations (10, 25, 50, 75, 125 ug/ml and 175, 250, 325, 400 and 500 ug/ml respectively).

CHO-K1 cells [2] = experiment: Transfection of luciferase plasmid into CHO-K1 cells
Description: CHO-K1 cells (ATCC: CRL-9618) were seeded into T25-culture flasks (Corning-Costar Buckinghamshire, UK), at 7×10^5 cells per flask, 24 hours prior to transfection. The CHO-K1 cells were seeded in 5 ml MEM alpha medium with ribonucleosides and deoxyribonucleosides and supplemented with 1×L-glutamine and 10% v/v foetal bovine serum (complete medium). The cells were grown at 37° C. in 5% CO2 in a humidified atmosphere.
For transfection, 5 ug DNA (luciferase control plasmid) was incubated with the gemini compounds in water (final volume 400 μl). The peptide-based gemini compounds were made up at 1 mg ml^−1 in tissue culture grade water and then diluted to the appropriate concentration to a total volume of 200 μl. Following a 30 minute room temperature incubation, 2.6 ml OPTI-MEM® medium was added and the solution placed on the cells. Following an overnight incubation at 37° C., the transfection solution was replaced with complete medium and the cells incubated at 37° C. 24 hours post transfection the cells were detached from the flask and seeded into 96-well plates at a density of 0.5×10^5 cells per well and incubated for a further 24 hours at 37° C. Luciferase reporter gene assays were performed according to the manufacturers instructions (Roche Diagnostics, Mannheim, Germany) approximately 48 hours post transfection. The plates were left for a 15 minutes adaption period in the dark before counting for 60 seconds in a TopCount NXT counter (Canberra Packard). An average of eight wells were counted per transfection.
Control transfections were set up with no DNA, an anionic gemini compound and the commercially available reagent LipofectAmine PLUS™.

[3] = compound 55 with DOPE 2:1 plus 11.6 ul PLUS compound

Compound: CCCCCCCCCCCCNC(=O)C(CO)NC(=O)C(CSCCSCC(NC(=O)C(N)CCCCNC(=O)C(N)CCCCN)C(=O)NC(CO)C(=O)NCCCCCCCCCCCC)NC(=O)C(N)CCCCNC(=O)C(N)CCCCN.Cl.Cl.Cl.Cl (stereo not shown) [Compound 55]
- Increase of luciferase activity (CHO-K1 cells [1]; PLUS compound incubated with the DNA, combined with compound 55 alone (no DOPE)): 4 fold
- Increase of luciferase activity (CHO-K1 cells [1]; compound 55 and DOPE at 2:1 ratio): 9 fold
- Increase of luciferase activity in comparison to compound 55 alone (CHO-K1 cells [1]; [3]): 12 fold
- Luciferase activity, mean count (CHO-K1 cells [1]; [3]): 6.5×10^5 cps
- Efficiency in facilitating transfection of the luciferase plasmid (HEK293 cells; at concentrations above 150 ug/ml): very efficient
- Most effective (peak) concentration for transfection (HEK293 cells; luciferase control plasmid): 300 µg/mL
- Luciferase activity, mean count at peak efficiency (HEK293 cells; luciferase control plasmid, at the agent's most effective concentration, mean of 4 independent counts): about 45,000 cps
- Efficiency in facilitating transfection of the luciferase plasmid (CHO-K1 cells [2]): very efficient
- Luciferase activity, mean count at most effective concentration (CHO-K1 cells [2]; 5 ug luciferase control plasmid, mean of 8 wells): about 2.4×10^5 cps
- Most effective (peak) concentration for transfection (CHO-K1 cells [2]; luciferase control plasmid): 30 µM
